Laboratory results published in patent US5747493A, “Dopamine re-uptake inhibitor” (Pola Chemical Industries, Inc., priority 1993, dated 1998).
Counter-ions that a name gives are not always drawn.

Key:
[1] = system: [^3 H]-DA re-uptake; assay: inhibition of [^3 H]-DA re-uptake in corpus striatum homogenate; assay type: biochemical, Sprague-Dawley rats; settings: for amount of DA re-uptake: 2 min
Method: Investigation as to inhibition of [^3 H]-DA re-uptake
Corpus striatum samples of Sprague-Dawley rats (SD rats) were used to investigate the inhibition of [^3 H]-DA re-uptake.
More specifically, after an SD rat (aged 8 weeks, male) was decapitated, its corpus striatum was taken out while keeping on ice. A Krebs-Henseleit buffer in an amount ten times of the corpus striatum was added thereto to homogenize the resultant mixture by means of a Teflon homogenizer, thereby obtaining a homogenate. To this homogenate, were added nialamide as a monoamine oxidase inhibitor, ascorbic acid as an antioxidant and a test agent to preincubate the resulting mixture at 37° C. for 5 minutes. […] After the reaction mixture was filtered by means of a cell harvester in which a filter had been set, the filter was washed twice with physiological saline. The washed filter was placed in a vial, and 10 ml of Aquazol-2 were added to leave the filter to stand overnight. Thereafter, the radioactivity of the sample was measured by a liquid scintillation counter.
Compound 1 according to the present invention was used as a test agent. The test agent was prepared into a 10^-2 M solution in dimethyl sulfoxide, and the solution was diluted with a Krebs-Henseleit buffer before its use. With the concentrations of the test substances, 11 points were selected within a range of from 10^-10 M to 10^-5 M to plot the concentration versus the amount of DA re-uptake. From this plot, an IC50 value was determined.

[2] = system: Wistar rats (male); assay: quantity of spontaneous movement; assay type: in vivo; settings: intraperitoneal, 3 hours; for Number of times of rising: control 2; for Number of times of traversing: control 20
From the text: Determination of quantity of spontaneous movement
Wistar rats (male) aged 7 weeks were used to confirm the effect of Compound 1 on spontaneous movement. […] The number of times of traversing sections of a floor and the number of times of rising were used as indices of the quantity of movement. The test agent was used in doses of from 0.1 mmol/kg down to 0.01 mmol/kg. Besides, physiological saline alone was used as a control.

OC(CNc1ccccc1)CN1CCN(CCCC(c2ccc(F)cc2)c2ccc(F)cc2)CC1 (stereo not drawn) [Compound 1, 1-[4,4-Bis(4-fluorophenyl)-butyl]-4-(2-hydroxy-3-phenyl-aminopropyl)piperazinedihydrochloride]
IC50 ([1]; SD rat corpus striatum homogenate, 37° C., 2 minutes reaction): 6.79 nM
amount of DA re-uptake ([1]; concentration of test substance -log (mol) 6, 1 µM): 0%
amount of DA re-uptake ([1]; concentration of test substance -log (mol) 6.5, 0.316 µM): 0%
amount of DA re-uptake ([1]; concentration of test substance -log (mol) 7, 0.1 µM): 2%
amount of DA re-uptake ([1]; concentration of test substance -log (mol) 8, 0.01 µM): 38%
amount of DA re-uptake ([1]; concentration of test substance -log (mol) 9, 0.001 µM): 80%
amount of DA re-uptake ([1]; concentration of test substance -log (mol) 10, 0.0001 µM): 92%
inhibition of DA re-uptake (in words) ([1]; conclusion from IC50 and Table 3): potent activities of inhibiting DA re-uptake
Number of times of rising ([2]; 0.01 mmol/kg): 69 times
Number of times of traversing ([2]; 0.01 mmol/kg): 253 times
Number of times of rising ([2]; 0.03 mmol/kg): 156 times
Number of times of traversing ([2]; 0.03 mmol/kg): 267 times
Number of times of rising ([2]; 0.1 mmol/kg): 121 times
Number of times of traversing ([2]; 0.1 mmol/kg): 287 times
quantity of spontaneous movement (in words) ([2]; 0.01 to 0.1 mmol/kg, hydrochloride): enhances the quantity of the spontaneous movement to a marked extent
